Laboratory results taken from patent US12291519B2, “2-hydroxycycloalkane-1-carbamoyl” (Idorsia Pharmaceuticals Ltd, priority 2019, dated 2025).

Legend:
human Gal-3 (hGal-3) = human Gal-3 (hGal-3) (Homo sapiens (Human), UniProt P17931); experiment: Competitive binding assay: biotinylated hGal-3 binding to microplate-adsorbed asialofetuin (ASF); conditions: Activity on hGal-3; binding of biotinylated hGal-3 to ASF-coated plates; mean values
Description: (§1) Evaluation of Compound Inhibitory Activity (IC50)
The inhibitory activity of compounds is determined in competitive binding assays. […] Alternatively, and preferably, a human Gal-1 version in which all six cysteines are substituted by serines may be used.
Briefly, compounds are serially diluted in DMSO (working dilutions).
(§2) Plates are incubated for 3 hours at 4° C. then washed with cold assay buffer (3×50 uL), incubated for 1 hour with 25 μL/well of a streptavidin-peroxidases solution (diluted in assay buffer to 80 ng/mL) at 4° C., followed by further washing steps with assay buffer (3×50 uL). Finally, 25 μL/well of ABTS substrate is added.
(§3) The calculated IC50 values may fluctuate depending on the daily assay performance. Fluctuations of this kind are known to those skilled in the art. IC50 values from several measurements are given as mean values.

human Gal-1 (hGal-1) = experiment: Competitive binding assay: biotinylated hGal-1 binding to microplate-adsorbed asialofetuin (ASF); conditions: Activity on hGal-1; binding of biotinylated hGal-1 to ASF-coated plates; mean values
Description: as §1
The inhibitory activity of compounds is determined in competitive binding assays. This spectrophotometric assay measures the binding of biotinylated human Gal-3 (hGal-3) or human Gal-1 (hGAl-1), respectively, to a microplate-adsorbed glycoprotein, asialofetuin (ASF) (Proc Natl Acad Sci USA. 2013 Mar. 26; 110(13):5052-7.). Alternatively, and preferably, a human Gal-1 version in which all six cysteines are substituted by serines may be used.
Briefly, compounds are serially diluted in DMSO (working dilutions). ASF-coated 384 well pates are supplemented with 22.8 μL/well of biotinylated hGal-3 or hGal-1 in assay buffer (i.e. 300-1000 ng/mL biotinylated hGal-3 or hGal-1) to which 1.2 μL of compound working dilutions are added and mixed.
as §2, with “added. OD (410 nm) is recorded after 30 to 45 min and IC50 values are calculated.” for “added.”
as §3

Chain of human Gal-3 (hGal-3) (P17931 whole entry): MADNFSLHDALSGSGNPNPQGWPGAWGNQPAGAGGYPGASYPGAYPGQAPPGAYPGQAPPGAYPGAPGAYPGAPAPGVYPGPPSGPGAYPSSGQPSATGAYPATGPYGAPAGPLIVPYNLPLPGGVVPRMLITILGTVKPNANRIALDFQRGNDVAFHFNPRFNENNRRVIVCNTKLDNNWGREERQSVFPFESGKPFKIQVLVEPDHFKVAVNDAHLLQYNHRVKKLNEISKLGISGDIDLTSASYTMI
Chain of human Gal-1 (hGal-1) (P09382 2-135 limits assumed): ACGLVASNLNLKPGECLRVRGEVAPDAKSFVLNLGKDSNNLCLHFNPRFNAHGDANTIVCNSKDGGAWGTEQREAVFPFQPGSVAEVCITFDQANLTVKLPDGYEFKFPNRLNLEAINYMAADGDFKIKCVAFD

| SMILES | IC50 (human Gal-3 (hGal-3)) [nM] | IC50 (human Gal-1 (hGal-1)) [nM] |
| --- | --- | --- |
| O=C([C@@H]1O[C@H](CO)[C@H](O)[C@H](n2cc(-c3cc(F)c(F)c(F)c3)nn2)[C@H]1O)N(Cc1cccnc1C(F)(F)F)[C@H]1CCCC[C@@H]1O [Example 9, (2R,3R,4S,5R,6R)-3,5-dihydroxy-N-((1S,2S)-2-hydroxycyclohexyl)-6-(hydroxymethyl)-N-((2-(trifluoromethyl)pyridin-3-yl)methyl)-4-(4-(3,4,5-trifluorophenyl)-1H-1,2,3-triazol-1-yl)tetrahydro-2H-pyran-2-carboxamide] | 147 | 1640 |
| CO[C@@H]1[C@@H](n2cc(-c3cc(F)c(F)c(F)c3)nn2)[C@@H](O)[C@@H](CO)O[C@H]1C(=O)N(Cc1ccccc1C(F)(F)F)[C@H]1CCCC[C@@H]1O [Example 11, (2R,3R,4S,5R,6R)-5-hydroxy-N-((1S,2S)-2-hydroxycyclohexyl)-6-(hydroxymethyl)-3-methoxy-N-(2-(trifluoromethyl)benzyl)-4-(4-(3,4,5-trifluorophenyl)-1H-1,2,3-triazol-1-yl)tetrahydro-2H-pyran-2-carboxamide] | 55 | 497 |
| CO[C@@H]1[C@@H](n2cc(-c3cc(F)c(F)c(F)c3)nn2)[C@@H](O)[C@@H](CO)O[C@H]1C(=O)N(Cc1ccccc1Cl)[C@H]1CCCC[C@@H]1O [Example 12, (2R,3R,4S,5R,6R)-N-(2-chlorobenzyl)-5-hydroxy-N-((1S,2S)-2-hydroxycyclohexyl)-6-(hydroxymethyl)-3-methoxy-4-(4-(3,4,5-trifluorophenyl)-1H-1,2,3-triazol-1-yl)tetrahydro-2H-pyran-2-carboxamide] | 52 | 497 |
| O=C([C@@H]1O[C@H](CO)[C@H](O)[C@H](n2cc(-c3cc(F)c(F)c(F)c3)nn2)[C@H]1O)N(Cc1ncccc1C(F)(F)F)[C@H]1CCCC[C@@H]1O [Example 13, (2R,3R,4S,5R,6R)-3,5-dihydroxy-N-((1S,2S)-2-hydroxycyclohexyl)-6-(hydroxymethyl)-N-((3-(trifluoromethyl)pyridin-2-yl)methyl)-4-(4-(3,4,5-trifluorophenyl)-1H-1,2,3-triazol-1-yl)tetrahydro-2H-pyran-2-carboxamide] | 255 | 7250 |
| Nc1nc(Cl)c(CN(C(=O)[C@@H]2O[C@H](CO)[C@H](O)[C@H](n3cc(-c4cc(F)c(F)c(F)c4)nn3)[C@H]2O)[C@H]2CCCC[C@@H]2O)s1 [Example 15, (2R,3R,4S,5R,6R)-N-((2-amino-4-chlorothiazol-5-yl)methyl)-3,5-dihydroxy-N-((1S,2S)-2-hydroxycyclohexyl)-6-(hydroxymethyl)-4-(4-(3,4,5-trifluorophenyl)-1H-1,2,3-triazol-1-yl)tetrahydro-2H-pyran-2-carboxamide] | 419 | 3180 |
| O=C([C@@H]1O[C@H](CO)[C@H](O)[C@H](n2cc(-c3cc(F)c(F)c(F)c3)nn2)[C@H]1O)N(Cc1ccc(Cl)o1)[C@H]1CCCC[C@@H]1O [Example 17, (2R,3R,4S,5R,6R)-N-((5-chlorofuran-2-yl)methyl)-3,5-dihydroxy-N-((1S,2S)-2-hydroxycyclohexyl)-6-(hydroxymethyl)-4-(4-(3,4,5-trifluorophenyl)-1H-1,2,3-triazol-1-yl)tetrahydro-2H-pyran-2-carboxamide] | 281 | 23100 |
| O=C([C@@H]1O[C@H](CO)[C@H](O)[C@H](n2cc(-c3cc(F)c(F)c(F)c3)nn2)[C@H]1O)N(Cc1cnsc1)[C@H]1CCCC[C@@H]1O [Example 18, (2R,3R,4S,5R,6R)-3,5-dihydroxy-N-((1S,2S)-2-hydroxycyclohexyl)-6-(hydroxymethyl)-N-(isothiazol-4-ylmethyl)-4-(4-(3,4,5-trifluorophenyl)-1H-1,2,3-triazol-1-yl)tetrahydro-2H-pyran-2-carboxamide] | 179 | 11600 |
| O=C([C@@H]1O[C@H](CO)[C@H](O)[C@H](n2cc(-c3cc(F)c(F)c(F)c3)nn2)[C@H]1O)N(Cc1csc(Br)n1)[C@H]1CCCC[C@@H]1O [Example 20, (2R,3R,4S,5R,6R)-N-((2-bromothiazol-4-yl)methyl)-3,5-dihydroxy-N-((1S,2S)-2-hydroxycyclohexyl)-6-(hydroxymethyl)-4-(4-(3,4,5-trifluorophenyl)-1H-1,2,3-triazol-1-yl)tetrahydro-2H-pyran-2-carboxamide] | 352 | 11700 |
| O=C([C@@H]1O[C@H](CO)[C@H](O)[C@H](n2cc(-c3cc(F)c(F)c(F)c3)nn2)[C@H]1O)N(Cc1cnc(N2CCOCC2)s1)[C@H]1CCCC[C@@H]1O [Example 21] | 112 | 10700 |
| O=C([C@@H]1O[C@H](CO)[C@H](O)[C@H](n2cc(-c3cc(F)c(F)c(F)c3)nn2)[C@H]1O)N(Cc1ccc(Cl)s1)[C@H]1CCCC[C@@H]1O [Example 22, (2R,3R,4S,5R,6R)-N-((5-chlorothiophen-2-yl)methyl)-3,5-dihydroxy-N-((1S,2S)-2-hydroxycyclohexyl)-6-(hydroxymethyl)-4-(4-(3,4,5-trifluorophenyl)-1H-1,2,3-triazol-1-yl)tetrahydro-2H-pyran-2-carboxamide] | 167 | 86600 |
| CO[C@@H]1[C@@H](n2cc(-c3cc(F)c(F)c(F)c3)nn2)[C@@H](O)[C@@H](CO)O[C@H]1C(=O)N(Cc1cccnc1C(F)(F)F)[C@H]1CCCC[C@@H]1O [Example 26, (2R,3R,4S,5R,6R)-5-hydroxy-N-((1S,2S)-2-hydroxycyclohexyl)-6-(hydroxymethyl)-3-methoxy-N-((2-(trifluoromethyl)pyridin-3-yl)methyl)-4-(4-(3,4,5-trifluorophenyl)-1H-1,2,3-triazol-1-yl)tetrahydro-2H-pyran-2-carboxamide] | 159 | 338 |

Further lines, results first:

| IC50 (human Gal-3 (hGal-3)) [nM] | IC50 (human Gal-1 (hGal-1)) [nM] | SMILES |
| --- | --- | --- |
| 122 | 1690 | O=C([C@@H]1O[C@H](CO)[C@H](O)[C@H](n2cc(-c3cc(F)c(F)c(F)c3)nn2)[C@H]1O)N(Cc1cnccc1C(F)(F)F)[C@H]1CCCC[C@@H]1O [Example 10, (2R,3R,4S,5R,6R)-3,5-dihydroxy-N-((1S,2S)-2-hydroxycyclohexyl)-6-(hydroxymethyl)-N-((4-(trifluoromethyl)pyridin-3-yl)methyl)-4-(4-(3,4,5-trifluorophenyl)-1H-1,2,3-triazol-1-yl)tetrahydro-2H-pyran-2-carboxamide] |
| 476 | 28300 | O=C([C@@H]1O[C@H](CO)[C@H](O)[C@H](n2cc(-c3cc(F)c(F)c(F)c3)nn2)[C@H]1O)N(Cc1cnoc1)[C@H]1CCCC[C@@H]1O [Example 16, (2R,3R,4S,5R,6R)-3,5-dihydroxy-N-((1S,2S)-2-hydroxycyclohexyl)-6-(hydroxymethyl)-N-(isoxazol-4-ylmethyl)-4-(4-(3,4,5-trifluorophenyl)-1H-1,2,3-triazol-1-yl)tetrahydro-2H-pyran-2-carboxamide] |
| 403 | 22700 | O=C([C@@H]1O[C@H](CO)[C@H](O)[C@H](n2cc(-c3cc(F)c(F)c(F)c3)nn2)[C@H]1O)N(Cc1ncc(Cl)s1)[C@H]1CCCC[C@@H]1O [Example 23, (2R,3R,4S,5R,6R)-N-((5-chlorothiazol-2-yl)methyl)-3,5-dihydroxy-N-((1S,2S)-2-hydroxycyclohexyl)-6-(hydroxymethyl)-4-(4-(3,4,5-trifluorophenyl)-1H-1,2,3-triazol-1-yl)tetrahydro-2H-pyran-2-carboxamide] |
| 280 | 4920 | CO[C@@H]1[C@@H](n2cc(-c3cc(F)c(F)c(F)c3)nn2)[C@@H](O)[C@@H](CO)O[C@H]1C(=O)N(Cc1ncccc1C(F)(F)F)[C@H]1CCCC[C@@H]1O [Example 25, (2R,3R,4S,5R,6R)-5-hydroxy-N-((1S,2S)-2-hydroxycyclohexyl)-6-(hydroxymethyl)-3-methoxy-N-((3-(trifluoromethyl)pyridin-2-yl)methyl)-4-(4-(3,4,5-trifluorophenyl)-1H-1,2,3-triazol-1-yl)tetrahydro-2H-pyran-2-carboxamide] |
| 264 | 3200 | O=C([C@@H]1O[C@H](CO)[C@H](O)[C@H](n2cc(-c3cc(F)c(F)c(F)c3)nn2)[C@H]1O)N(Cc1cncnc1C(F)(F)F)[C@H]1CCCC[C@@H]1O [Example 27, (2R,3R,4S,5R,6R)-3,5-dihydroxy-N-((1S,2S)-2-hydroxycyclohexyl)-6-(hydroxymethyl)-N-((4-(trifluoromethyl)pyrimidin-5-yl)methyl)-4-(4-(3,4,5-trifluorophenyl)-1H-1,2,3-triazol-1-yl)tetrahydro-2H-pyran-2-carboxamide] |
